According to the supplement of paper PMC10307832:

Experiments:
Assay in all cases: relative viability (nuclei count vs DMSO), 5 days (fraction); higher = more cells survive
AZ505 + Pemetrexed = compound: C1CCC(CC1)N(CCNCCC2=C3C(=C(C=C2)O)NC(=O)CO3)C(=O)CCNCCC4=CC(=C(C=C4)Cl)Cl [AZ505] + Nc1nc2[nH]cc(CCc3ccc(C(=O)N[C@@H](CCC(=O)O)C(=O)O)cc3)c2c(=O)[nH]1 [Pemetrexed] (partner 0.2 µM)
How it was run: (§1)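 Lung cancer cell lines, seeded in 1536-well plates, were treated the following day by pin tool with a single drug or with five library-drug doses (not always all listed) in √10 steps on top of a fixed anchor-drug dose. Cells were fixed and nuclei stained in one step after 5 days, and nuclei were counted. Relative viability is the nuclei count for treated wells divided by that for vehicle wells, reported as medians of duplicate plates.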

AZ505 + Bortezomib = compound: C1CCC(CC1)N(CCNCCC2=C3C(=C(C=C2)O)NC(=O)CO3)C(=O)CCNCCC4=CC(=C(C=C4)Cl)Cl [AZ505] + CC(C)C[C@H](NC(=O)[C@H](Cc1ccccc1)NC(=O)c1cnccn1)B(O)O [Bortezomib] (partner 0.002 µM)
How it was run: as §1

AZ505 + Navitoclax = compound: C1CCC(CC1)N(CCNCCC2=C3C(=C(C=C2)O)NC(=O)CO3)C(=O)CCNCCC4=CC(=C(C=C4)Cl)Cl [AZ505] + CC1(C)CCC(c2ccc(Cl)cc2)=C(CN2CCN(c3ccc(C(=O)NS(=O)(=O)c4ccc(N[C@H](CCN5CCOCC5)CSc5ccccc5)c(S(=O)(=O)C(F)(F)F)c4)cc3)CC2)C1 [Navitoclax] (partner 0.5 µM)
How it was run: as §1

Dactolisib + Phenformin = compound: Cn1c(=O)n(-c2ccc(C(C)(C)C#N)cc2)c2c3cc(-c4cnc5ccccc5c4)ccc3ncc21 [Dactolisib] + N=C(N)NC(=N)NCCc1ccccc1 [Phenformin] (partner 250 µM)
How it was run: as §1

Row | Cell Line | relative viability (AZ505 + Pemetrexed; first compound 0.08 µM) | relative viability (AZ505 + Pemetrexed; first compound 0.253 µM) | relative viability (AZ505 + Pemetrexed; first compound 0.8 µM) | relative viability (AZ505 + Pemetrexed; first compound 2.53 µM) | relative viability (AZ505 + Pemetrexed; first compound 8 µM) | relative viability (AZ505 + Bortezomib; first compound 0.08 µM) | relative viability (AZ505 + Bortezomib; first compound 0.253 µM) | relative viability (AZ505 + Bortezomib; first compound 0.8 µM) | relative viability (AZ505 + Bortezomib; first compound 2.53 µM) | relative viability (AZ505 + Bortezomib; first compound 8 µM) | relative viability (AZ505 + Navitoclax; first compound 0.08 µM) | relative viability (AZ505 + Navitoclax; first compound 0.253 µM) | relative viability (AZ505 + Navitoclax; first compound 0.8 µM) | relative viability (AZ505 + Navitoclax; first compound 2.53 µM) | relative viability (AZ505 + Navitoclax; first compound 8 µM) | relative viability (Dactolisib + Phenformin; first compound 0.002 µM) | relative viability (Dactolisib + Phenformin; first compound 0.006325 µM) | relative viability (Dactolisib + Phenformin; first compound 0.02 µM) | relative viability (Dactolisib + Phenformin; first compound 0.06325 µM) | relative viability (Dactolisib + Phenformin; first compound 0.2 µM)
1 | NCI-H441 | 0.254 | 0.272 | 0.278 | 0.308 | 0.262 | 0.751 | 0.636 | 0.598 | 0.432 | 0.621 | 0.691 | 0.682 | 0.545 | 0.716 | 0.505 | 1.28 | 0.737 | 0.812 | 0.337 | 0.289
2 | NCI-H460 | 0.063 | 0.0565 | 0.0644 | 0.0703 | 0.0621 | 0.945 | 1.24 | 1.04 | 1.09 | 1.11 | 1.02 | 1.19 | 0.965 | 1.11 | 1.2 | 0.506 | 0.474 | 0.508 | 0.142 | 0.0635
3 | NCI-H520 | 0.483 | 0.684 | 0.777 | 0.81 | 0.875 | 0.588 | 0.504 | 0.496 | 0.706 | 0.762 | 1.05 | 1.23 | 1.12 | 1.22 | 1.07 | 0.529 | 0.534 | 0.369 | 0.202 | 0.217
4 | NCI-H596 | 0.463 | – | 0.469 | 0.564 | 0.483 | 0.963 | 0.847 | 0.756 | 1.19 | 1.03 | 0.862 | 0.806 | 0.597 | 0.803 | 0.87 | 0.738 | 0.767 | 0.627 | 0.468 | 0.372
5 | NCI-H647 | 0.158 | 0.155 | 0.195 | 0.196 | 0.184 | 1.07 | 1.13 | 1 | 1.19 | 1.01 | 1.02 | 1.22 | 1.14 | 0.97 | 1.32 | 0.536 | 0.449 | 0.429 | 0.156 | 0.105
6 | NCI-H838 | 0.251 | 0.253 | 0.252 | 0.246 | 0.221 | 0.805 | 0.609 | 0.761 | 0.564 | 0.884 | 1.12 | 1.13 | 1.13 | 1.11 | 1.11 | 0.628 | 0.423 | 0.267 | 0.201 | 0.175
7 | NCI-H1355 | 0.953 | 1 | 1.03 | 0.996 | 1 | 1.13 | 1.19 | 1.16 | 1.25 | 1.16 | 0.883 | 0.864 | 0.908 | 0.915 | 0.987 | 0.497 | 0.429 | 0.43 | 0.373 | 0.316
8 | NCI-H1437 | 0.334 | 0.314 | 0.29 | 0.336 | 0.322 | 0.551 | 0.453 | 0.49 | 0.405 | 0.743 | 1.03 | 1.14 | 1.06 | 1.07 | 1.08 | 0.27 | 0.341 | 0.323 | 0.296 | 0.289
